Measurements taken from PubChem BioAssay (NCI).
Values joined by “and” are separate entries in the source; they are usually repeats but may differ in a detail not shown here. Equal values may be shown once.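 How tested: cells in 96-well plates exposed to compound for 48 hours at five concentrations. Here, GI50 denotes the concentration required for 50% inhibition of growth. TGI: total growth inhibition.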

Assays:
Assay in all cases: DTP human tumour cell line panel, 48 h
SK-MEL-2 melanoma = system: SK-MEL-2 melanoma
M14 melanoma = system: M14 melanoma
SK-MEL-5 melanoma = system: SK-MEL-5 melanoma
MALME-3M melanoma = system: MALME-3M melanoma
RPMI-8226 leukemia = system: RPMI-8226 leukemia
MDA-MB-435 = system: MDA-MB-435
EKVX NSCLC = system: EKVX NSCLC
LOX IMVI melanoma = system: LOX IMVI melanoma
MDA-MB-231 breast = system: MDA-MB-231 breast
NCI-H226 lung = system: NCI-H226 lung

SMILES | GI50 (SK-MEL-2 melanoma) | TGI (SK-MEL-2 melanoma) | GI50 (M14 melanoma) | TGI (M14 melanoma) | GI50 (SK-MEL-5 melanoma) | TGI (SK-MEL-5 melanoma) | GI50 (MALME-3M melanoma) | TGI (MALME-3M melanoma) | GI50 (RPMI-8226 leukemia) | TGI (RPMI-8226 leukemia) | GI50 (MDA-MB-435) | TGI (MDA-MB-435) | GI50 (EKVX NSCLC) | TGI (EKVX NSCLC) | GI50 (LOX IMVI melanoma) | TGI (LOX IMVI melanoma) | GI50 (MDA-MB-231 breast) | TGI (MDA-MB-231 breast) | GI50 (NCI-H226 lung) | TGI (NCI-H226 lung)
COC1C(O)C(CO)OC(OC2C(O)COC(OC3C(C)OC(OC4C(O[C@H]5CC[C@@]6(C)C(CC=C7[C@H]6CCC68C(=O)O[C@@](C)(CCCC(C)C)[C@H]6[C@@H](OC(C)=O)C[C@@]78C)C5(C)C)OCC(OS(=O)(=O)O)C4O)C(OC4OCC(O)C(O)C4O)C3O)C2O)C1O (some centres undefined) | 0.233 µM | 2.47 µM | 0.258 µM | 0.894 µM | 0.473 µM | 1.13 µM | 0.242 µM | 0.671 µM | 0.163 µM | 0.402 µM | 0.196 µM | 0.532 µM | 0.101 µM | 0.565 µM | 0.164 µM | 0.357 µM | 0.103 µM | 0.325 µM | 0.192 µM | 0.484 µM
COc1cc2nc(-c3cc(F)ccc3O)nc(N[C@@H]3CNC[C@H]3C(C)(C)O)c2cc1OC | 1.59 µM | 3.12 µM | 1.87 µM | 3.47 µM | 1.74 µM | 3.15 µM | 1.78 µM | 3.24 µM | 2.15 µM | 5.14 µM | 1.65 µM | 3.03 µM | 1.44 µM | 3.02 µM | 1.46 µM | 2.87 µM | 1.23 µM | 2.8 µM | 1.48 µM | 4.38 µM
Oc1cccc2ccc(N/N=C/c3cc(CN4CCOCC4)c(O)c4ncccc34)nc12 | < 0.0181 µM | 0.26 µM | 0.0392 µM | 1.58 µM | 0.0124 µM | 0.0375 µM | 0.032 µM | 1.89 µM | 0.0154 µM | 10.5 µM | 0.0165 µM | 2.86 µM | 0.0962 µM | 11.2 µM | 0.0426 µM | 1.41 µM | 0.0441 µM | 2.25 µM | 0.533 µM | 5.57 µM
Cc1cccc2c3c(sc12)C(c1ccc(Cl)cc1)C(C#N)=C(N)O3 (centres undefined) | 1.41 µM | 21 µM | 0.326 µM | 12.8 µM | 0.467 µM | 4.11 µM | 0.653 µM | 20 µM | 0.423 µM | 6.33 µM | 0.182 µM | 0.42 µM | 0.57 µM | 17.8 µM | 0.663 µM | 3.92 µM | 0.679 µM | 7.74 µM | 0.763 µM | 7.46 µM
COc1cc(/C=C/C(=O)c2cccc(-n3cc(-c4ccc(Cl)cc4)[nH]c3=O)c2)cc(OC)c1OC | 3.44 µM | 12.5 µM | 4.36 µM | 18.3 µM | 8.7 µM | 23.7 µM | 18.1 µM | > 100 µM | 3.92 µM | > 100 µM | 3.63 µM | > 100 µM | 23.9 µM | > 100 µM | 1.72 µM | 3.2 µM | 13.8 µM | 48.6 µM | > 100 µM | > 100 µM
CC(=O)NCc1cccc(C#Cc2cncnc2Nc2ccc(OCc3cccc(F)c3)c(Cl)c2)c1 | 11.8 µM | > 25 µM | 14.1 µM | > 25 µM | 9.44 µM | > 25 µM | 19.4 µM | > 25 µM | 15.4 µM | > 25 µM | 8.41 µM | > 25 µM | 1.46 µM | > 14.8 µM | 9.44 µM | > 25 µM | > 25 µM | > 25 µM | > 21.1 µM | > 25 µM
O=C1OC(C(O)CO)C(O)=C1O (centres undefined) | 2190 µM | 4940 µM and > 3780 µM | 1890 µM and 2290 µM | 3570 µM and 4760 µM | 1560 µM and > 4190 µM | 2910 µM and > 5600 µM | 1540 µM and 1760 µM | 2990 µM and 3550 µM | 1910 µM and 2400 µM | 4500 µM and 6610 µM | 203 µM and 208 µM | 372 µM and 374 µM | 2420 µM | 4390 µM | 340 µM and 426 µM | 1000 µM and 1460 µM | 1460 µM and 1440 µM | 2820 µM and 2960 µM | 2150 µM and 4450 µM | 4870 µM and > 6830 µM
OC(C#Cc1ccccc1)(c1ccccc1)c1ccccc1 |  | 55.4 µM |  | > 100 µM |  | 37.7 µM |  | 60.2 µM |  | 47.4 µM |  | 56.3 µM |  | 82.4 µM |  | 38 µM |  | > 100 µM |  | 87.3 µM
COC1=C(OC)C(=O)C(SC/C=C(\C)CCCC(C)CCCC(C)CCCC(C)C)=CC1=O (centres undefined) | 0.802 µM | 4.24 µM | 0.743 µM | > 100 µM | 0.341 µM | 1.73 µM | 0.513 µM |  | 0.126 µM | 2.88 µM | 0.845 µM | > 38.7 µM | 1.11 µM | > 37.7 µM | 0.488 µM | > 100 µM | 1.92 µM | 8.78 µM | 2.75 µM | > 100 µM
